This note sets out measurements from patent US10336792B2, “Antimicrobial peptide dendrimers” (priority 2014, dated 2019).

Experiment [1] is described as follows: 5(6)-Carboxyfluorescein leakage from lipid vesicles. The conditions noted are these: 10 mM TRIS, 107 mM NaCl, pH 7.4; peptide added at 50 s. On the procedure:
Preparation A thin lipid film was prepared by evaporating a solution of 25 mg Egg PC or Egg PG in 1 mL MeOH/CHCl3 1/1 on a rotary evaporator (rt) and then in vacuo overnight. The resulting film was hydrated with 1 mL buffer (50 mM CF, 10 mM TIRS, 10 mM NaCl, pH 7.4) for 30 min, subjected to freeze-thaw cycles (7×) and extrusion (15×) through a polycarbonate membrane (pore size 100 nm). Extravesicular components were removed by gel filtration (Sephadex G-50) with 10 mM TRIS, 107 mM NaCl, pH 7.4. Final conditions: ˜2.5 mM Egg PC or Egg PG; inside: 50 mM CF, 10 mM TIRS, 10 mM NaCl, pH 7.4; outside: 10 mM TRIS, 107 mM NaCl, pH 7.4.
Experiment Egg PC or Egg PG stock solutions (37.5 μL) were diluted with a buffer (10 mM TRIS, 107 mM NaCl, pH 7.4) and placed in a thermostated fluorescence cuvette (25° C.) and gently stirred (total volume in the cuvette ˜3000 μL; final lipid concentration ˜31.25 μM). CF efflux was monitored at λem 517 nm (λex 492 nm) as a function of time after addition of 20 μL of peptide dendrimer in buffer (10 mM TRIS, 107 mM NaCl, pH 7.4) with final concentrations of 1, 5, 7.5, 10, 15, 20, 25, 30 μg/mL at t=50 s and 1.2% trition X-100 (30 μL, 0.012% final concentration) at t=300 s. Fluorescence intensities were normalized to fractional emission intensity I(t) using I(t)=(It−I0)/(I∞−I0) where I0 It at peptide dendrimer addition, I∞=It at saturation of lysis.
Bacterial membranes contain relatively large amounts of exposed anionic lipids, while the outer leaflet of the membranes of plants and animals is composed mainly of lipids with no net charge. The charge composition of such membranes can be mimicked with phospholipid vesicles. Large unilamellar vesicles (LUVs) composed of the neutral phospholipid with PC (phosphatidyl choline) or with PG (phosphatidyl glycerol) with negative charges were prepared encapsulating 5(6)-carboxyfluorescein (CF). […] The higher the concentration of MSt-112 the higher is the CF leakage (FIG. 6A). […] Overall the active AMPDs interact with the negatively charged membrane and release the CF.

In experiment [2] the test system is P. aeruginosa PT1482 (A-), PT1485 (A-B-), PT1149 (A-B-C-algC), PT331 (Z61) (LPS mutants). The experiment is classed as cell-based, Pseudomonas aeruginosa. The conditions noted are these: MH medium, 12-18 h.
For experiment [3], the system named is Pseudomonas aeruginosa (strain PA01). Briefly: microbe, parasite or virus in culture. The experiment is classed as cell-based. The settings on record: LB medium, serial 2/3 dilution, 37 °C, 18-24 h. In a few lines: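 P. aeruginosa PAO1 grown overnight in LB, diluted to OD600 0.001 and mixed with ⅔-step peptide dilutions, then incubated at 37 °C for 18–24 h. After MTT staining, the lowest concentration with no visible growth was read by eye as the MIC.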

For the substance Polymyxin B [reference compound], the “CF leakage from phosphatidylglycerol LUVs” value in experiment [1] is on record as “immediate leakage of CF”. Besides, in experiment [2], the “MIC PT1482 (A-)” value amounted to 1 µg/mL and the “MIC PT1485 (AB-)” value was less than 1 µg/mL. Also, the “MIC P. aeruginosa PAO1” value in experiment [3] turned out to be 2 µg/mL.
